Source: patent US20110152333A1, “3-CYANOPYRROLIDINYL-PHENYL-OXAZOLIDINONES AS ANTIBACTERIAL AGENTS” (FERRER INTERNACIONAL, S.A., priority 2008, published 2011)
≈ marks a conversion by molar mass, not a printed value. Like-named read-outs stand apart in the source and are kept apart here.

Experiments:
S. aureus ATCC43300 MR = assay: MIC, micro dilution (NCCLS M7-A5); type: cell-based; conditions: Staphylococcus aureus, Table 2
S. aureus 199B = assay: MIC, micro dilution (NCCLS M7-A5); type: cell-based; conditions: Staphylococcus aureus, Table 2
E. faecalis ECFL-1 = assay: MIC, micro dilution (NCCLS M7-A5); type: cell-based; conditions: Enterococcus faecalis, ECFL1, Table 2
[1] = system: Moraxella catarrhalis HCI-78; assay: MIC, micro dilution (NCCLS M7-A5); type: cell-based; conditions: HCI78, Table 1, 5% CO2
S. aureus LNZ-R 432 = assay: MIC, micro dilution (NCCLS M7-A5); type: cell-based; conditions: Staphylococcus aureus, LNZR432, Table 1
S. aureus 1199 = assay: MIC, micro dilution (NCCLS M7-A5); type: cell-based; conditions: Staphylococcus aureus, Table 2
[2] = system: S. epidermidis ATCC12228 MR; assay: MIC, micro dilution (NCCLS M7-A5); type: cell-based; conditions: Staphylococcus epidermidis, Table 2
[3] = system: S. aureus 1199B NorA overE; assay: MIC, micro dilution (NCCLS M7-A5); type: cell-based; conditions: Staphylococcus aureus
[4] = system: E. faecalis ATCC51575 MDR; assay: MIC, micro dilution (NCCLS M7-A5); type: cell-based; conditions: Enterococcus faecalis, Table 2
[5] = system: S. pneumoniae ATCC6303 in vivo; assay: MIC, micro dilution (NCCLS M7-A5); type: cell-based; conditions: Streptococcus pneumoniae, Table 2
S. Haemolyticus = assay: MIC, micro dilution (NCCLS M7-A5); type: cell-based; conditions: Staphylococcus haemolyticus, Table 2
E. faecium ECFM-1-128 = assay: MIC, micro dilution (NCCLS M7-A5); type: cell-based; conditions: Enterococcus faecium, ECFM1128, Table 2
[6] = system: S. pneumoniae ATCC49619 PR; assay: MIC, micro dilution (NCCLS M7-A5); type: cell-based, Streptococcus pneumoniae
[7] = system: B. fragilis sp. fragilis ATCC25285; assay: MIC, micro dilution (NCCLS M7-A5); type: cell-based; conditions: Bacteroides fragilis, Table 1, Brucella Blood medium for anaerobic strains
E. coli KAM-3 = assay: MIC, micro dilution (NCCLS M7-A5); type: cell-based; conditions: Escherichia coli, KAM3, Table 2
E. faecium ECFM-2 = assay: MIC, micro dilution (NCCLS M7-A5); type: cell-based; conditions: Enterococcus faecium, ECFM2, Table 2
[8] = system: S. aureus ATCC33591 in vivo; assay: MIC, micro dilution (NCCLS M7-A5); type: cell-based; conditions: Staphylococcus aureus, Table 2
[9] = system: S. aureus clinical strain cfr. methylase; assay: MIC, micro dilution (NCCLS M7-A5); type: cell-based; conditions: Staphylococcus aureus, Table 2
H. influenzae ATCC49247 = assay: MIC, micro dilution (NCCLS M7-A5); type: cell-based, Haemophylus influenzae; conditions: Haemophilus influenzae, Table 1
E. faecalis ATCC29212 = assay: MIC, micro dilution (NCCLS M7-A5); type: cell-based; conditions: Enterococcus faecalis, Table 2
S. aureus ATCC25923 MS = assay: MIC, micro dilution (NCCLS M7-A5); type: cell-based, Staphylococcus aureus
MRSE = assay: MIC, micro dilution (NCCLS M7-A5); type: cell-based; conditions: Staphylococcus epidermidis, Table 2
Staphyl. = assay: Geometric mean MIC, staphylococci; type: cell-based; conditions: Table 2, read-out: Geom. Mean MIC Staphyl.
E. coli TG1 = assay: MIC, micro dilution (NCCLS M7-A5); type: cell-based; conditions: Escherichia coli, Table 2
E. faecium ECFM-1 = assay: MIC, micro dilution (NCCLS M7-A5); type: cell-based; conditions: Enterococcus faecium, ECFM1, Table 2
E. faecalis ECFL-2 = assay: MIC, micro dilution (NCCLS M7-A5); type: cell-based; conditions: Enterococcus faecalis, ECFL2, Table 2
E. faecium LNZ-R LR-4 = assay: MIC, micro dilution (NCCLS M7-A5); type: cell-based, Enterococcus faecium
E. faecalis ECFL-1-128 = assay: MIC, micro dilution (NCCLS M7-A5); type: cell-based; conditions: Enterococcus faecalis, ECFL1128, Table 2
MRSE-128 = assay: MIC, micro dilution (NCCLS M7-A5); type: cell-based; conditions: Table 2
Enteroc. = assay: Geometric mean MIC, enterococci; type: cell-based; conditions: Table 2, read-out: Geom. Mean MIC Enteroc.
E. faecium ATCC51559 MDR = assay: MIC, micro dilution (NCCLS M7-A5); type: cell-based, Enterococcus faecium
E. faecium ATCC10541 = assay: MIC, micro dilution (NCCLS M7-A5); type: cell-based; conditions: Enterococcus faecium, Table 2
Gram+ = assay: Geometric mean MIC, Gram+; type: cell-based; conditions: Table 2, read-out: Geom. Mean MIC Gram+
[10] = system: Moraxella, Pasteurella and Bacteroides spp.; conditions: background; cited from earlier work
[11] = Streptococcus pneumoniae, Table 1, 5% CO2, read-out: MIC
[12] = Staphylococcus aureus, Table 1, read-out: MIC
[13] = Enterococcus faecium, Table 1, read-out: MIC
[14] = Enterococcus faecium, Table 2, read-out: MIC

Compound	MIC (S. aureus ATCC43300 MR) [µg/mL]	MIC (S. aureus 199B) [µg/mL]	MIC (E. faecalis ECFL-1) [µg/mL]	MIC [1] [µg/mL]	MIC (S. aureus LNZ-R 432) [µg/mL]	MIC (S. aureus 1199) [µg/mL]	MIC [2] [µg/mL]	MIC [3] [µg/mL]	MIC [4] [µg/mL]	MIC [5] [µg/mL]	MIC (S. Haemolyticus) [µg/mL]	MIC (E. faecium ECFM-1-128) [µg/mL]	MIC [6, 11] [µg/mL]	MIC [7] [µg/mL]	MIC (E. coli KAM-3) [µg/mL]	MIC (E. faecium ECFM-2) [µg/mL]	MIC [8] [µg/mL]	MIC [9] [µg/mL]	MIC (H. influenzae ATCC49247) [µg/mL]	MIC (E. faecalis ATCC29212) [µg/mL]	also measured
CC(=O)NC[C@H]1CN(c2ccc(N3CCC(C#N)C3)c(F)c2)C(=O)O1 (stereo partly drawn) [Ex. 1, N-{(5S)-3-[3-fluoro-4-(3-cyanopyrrolidin-1-yl)phenyl]-2-oxo-5-oxazolidinylmethyl}acetamide]	0.5 (≈ 1.44 µM)	1 (≈ 2.89 µM)	0.125 (≈ 0.361 µM)	2 (≈ 5.77 µM)	4 (≈ 11.5 µM)	1 (≈ 2.89 µM)	0.25 (≈ 0.722 µM)	0.5 (≈ 1.44 µM)	0.25 (≈ 0.722 µM)	0.25 (≈ 0.722 µM)	8 (≈ 23.1 µM)	32 (≈ 92.4 µM)	0.25 (≈ 0.722 µM)	0.5 (≈ 1.44 µM)	1 (≈ 2.89 µM)	0.5 (≈ 1.44 µM)	0.25 (≈ 0.722 µM)	4 (≈ 11.5 µM)	4 (≈ 11.5 µM)	0.25 (≈ 0.722 µM)	MIC ([6]; Table 2): 0.25 µg/mL (≈ 0.722 µM); MIC (S. aureus ATCC25923 MS; [12]): 0.5 µg/mL (≈ 1.44 µM); MIC (S. aureus ATCC25923 MS; Table 2): 0.5 µg/mL (≈ 1.44 µM); MIC (MRSE): 0.25 µg/mL (≈ 0.722 µM); MIC (Staphyl.): 0.4 µg/mL (≈ 1.15 µM); MIC (E. coli TG1): 32 µg/mL (≈ 92.4 µM); MIC (E. faecium ECFM-1): 0.5 µg/mL (≈ 1.44 µM); MIC (E. faecalis ECFL-2): 1 µg/mL (≈ 2.89 µM); MIC (E. faecium LNZ-R LR-4; [13]): 8 µg/mL (≈ 23.1 µM); MIC (E. faecium LNZ-R LR-4; Table 2): 8 µg/mL (≈ 23.1 µM); MIC (E. faecalis ECFL-1-128): 32 µg/mL (≈ 92.4 µM); MIC (MRSE-128): 8 µg/mL (≈ 23.1 µM); MIC (Enteroc.): 0.3 µg/mL (≈ 0.866 µM); MIC (E. faecium ATCC51559 MDR; [13]): 0.25 µg/mL (≈ 0.722 µM); MIC (E. faecium ATCC51559 MDR; Table 2): 0.25 µg/mL (≈ 0.722 µM); MIC (E. faecium ATCC10541): 0.25 µg/mL (≈ 0.722 µM)
CC(=O)NC[C@H]1CN(c2ccc(N3CCC(O)C3)c(F)c2)C(=O)O1 (stereo partly drawn) [Ex. 5, (S)—N-[[3-[4-(3-hydroxypyrrolidinyl)-3-fluorophenyl]-2-oxo-5-oxazolidinyl]methyl]acetamide, reference compound]	1 (≈ 2.96 µM)	2 (≈ 5.93 µM)	2 (≈ 5.93 µM)	–	–	2 (≈ 5.93 µM)	1 (≈ 2.96 µM)	1 (≈ 2.96 µM)	2 (≈ 5.93 µM)	0.5 (≈ 1.48 µM)	32 (≈ 94.9 µM)	64 (≈ 190 µM)	–	–	4 (≈ 11.9 µM)	2 (≈ 5.93 µM)	2 (≈ 5.93 µM)	16 (≈ 47.4 µM)	–	2 (≈ 5.93 µM)	MIC ([6]; Streptococcus pneumoniae, Table 2, read-out: MIC): 1 µg/mL (≈ 2.96 µM); MIC (Gram+): 1.4 µg/mL (≈ 4.15 µM); MIC (S. aureus ATCC25923 MS; Staphylococcus aureus, Table 2, read-out: MIC): 2 µg/mL (≈ 5.93 µM); MIC (MRSE): 1 µg/mL (≈ 2.96 µM); MIC (Staphyl.): 1.2 µg/mL (≈ 3.56 µM); MIC (E. coli TG1): 64 µg/mL (≈ 190 µM); MIC (E. faecium ECFM-1): 2 µg/mL (≈ 5.93 µM); MIC (E. faecalis ECFL-2): 4 µg/mL (≈ 11.9 µM); MIC (E. faecium LNZ-R LR-4; [14]): 32 µg/mL (≈ 94.9 µM); MIC (E. faecalis ECFL-1-128): 64 µg/mL (≈ 190 µM); MIC (MRSE-128): 32 µg/mL (≈ 94.9 µM); MIC (Enteroc.): 1.7 µg/mL (≈ 5.04 µM); MIC (E. faecium ATCC51559 MDR; [14]): 1 µg/mL (≈ 2.96 µM); MIC (E. faecium ATCC10541): 2 µg/mL (≈ 5.93 µM)
CC(=O)NC[C@H]1CN(c2ccc(N3CCOCC3)c(F)c2)C(=O)O1 [Linezolid, N-[[(5S)-3-[3-fluoro-4-(4-morpholinyl)phenyl]-2-oxo-5-oxazolidinyl]methyl]acetamide, reference compound]	–	–	–	2 (≈ 5.93 µM)	16 to 32 (≈ 47.4 to 94.9 µM)	–	–	–	–	–	–	–	1 (≈ 2.96 µM)	2 (≈ 5.93 µM)	–	–	–	–	16 (≈ 47.4 µM)	–	MIC (S. aureus ATCC25923 MS; [12]): 1 µg/mL (≈ 2.96 µM); MIC (E. faecium LNZ-R LR-4; [13]): 64 µg/mL (≈ 190 µM); MIC (E. faecium ATCC51559 MDR; [13]): 0.5 µg/mL (≈ 1.48 µM); MICs [10]: 2 to 8 µg/mL
